Data as given in patent US20220204491A1, “FXR (NR1H4) MODULATING COMPOUNDS” (Gilead Sciences, Inc., priority 2019, published 2022).

Assays:
Farnesoid X receptor = test: In vivo pharmacodynamics in cynomolgus monkey: plasma FGF19 after oral versus IV dosing; settings: for FGF19 levels compared to baseline: IV administration; for FGF19 levels compared to baseline / plasma FGF19 over the dosing interval compared to baseline: cynomolgus monkey; for FGF19 AUClast: male cynomolgus monkey, plasma, 24 hour period; for Ratio AUClast to FG19/GS: FGF19 AUClast over drug AUClast; for PO/IV: PO ratio (FGF19/GS AUClast) over IV ratio; for plasma FGF19 over the dosing interval compared to baseline: oral administration
Method: In vivo pharmacodynamics of Formula (I) of Example 1, Comparative Example 1, and Comparative Example 2 were determined as follows.
Oral solution doses of Formula (I) (Example 1) were formulated at concentrations of 1 mg/mL in aqueous suspensions of 1% sodium laurel sulfate (SLS), 1% ethanol, and 98% water at pH 2. Oral suspension doses of Comparative Example 1, and Comparative Example 2 were formulated at concentrations of 2.5 mg/mL in 1% hydyroxypropyl methylcellulose (HPMC), 0.5% Tween 80, and 98.5% water.
Intravenous doses of compounds of Formula (I) (Example 1), Comparative Example 1, and Comparative Example 2 were formulated at concentrations of 0.5 mg/mL in a vehicle including 5% DMSO, 15% NMP, 60% PEG 300 and water with 1.1 equivalents of NaOH.
Each dosing group consisted of three to six male Cynomolgus monkeys. At dosing, the animals weighed between 2.4 and 4.4 kg.
The oral test articles were administered to the monkeys via oral gavage at 2 mL/kg or nasogastric untubation at 5 mL/kg for a dose of 5 mg/kg. The intravenous test articles were administered as an approximately 30-minute infusion via an indwelling catheter in a saphenous or cephalic vein at approximately 2 mL/kg for a dose of 1 mg/kg.
Venous blood samples were taken at specified time points after dosing from each animal. The blood samples were collected and transferred into tubes containing potassium (K2) EDTA anticoagulant.
The FGF19 ELISA assay kit from BioVendor (product number RD191107200R) was used to determine FGF19 concentrations in the collected blood samples.
Activation of the Farnesoid X receptor in the distal small intestine as well as systemically in organs such as the liver, directly causes the expression and secretion of FGF19. Plasma FGF levels were evaluated as a pharmacodynamics marker of FXR activation in male cynomolgus monkeys following administration of oral and intravenous administration of doses of Example 1, Comparative Example 1, or Comparative Example 2. The difference between levels of FGF19 following oral administration (PO) versus intravenous administration (IV) were used to compare the degree of intestinal FXR agonism (via analysis of PO data) and systemic FXR agonism (via analysis of IV data) for each compound administered. Plasma levels of drug and FGF19 were measured at various time points over a 24 hour period to generate pharmacokinetic and pharmacodynamics curves.

[1] = molecular target: T1, FXR ligand binding domain (Homo sapiens, UniProt Q96RI1); test: Mammalian one hybrid (M1H) Gal4 reporter assay in HEK293 cells; assay type: cell-based; settings: Gal4-FXR-LBD luciferase reporter, 16 hours
T1 construct: expressed in transfected cells; host or cells: HEK293 (DSMZ), transient transfection of pCMV-BD-FXR-LBD, pFR-Luc and pRL-CMV
T1 sequence (Q96RI1 187-472 isoform Q96RI1-2): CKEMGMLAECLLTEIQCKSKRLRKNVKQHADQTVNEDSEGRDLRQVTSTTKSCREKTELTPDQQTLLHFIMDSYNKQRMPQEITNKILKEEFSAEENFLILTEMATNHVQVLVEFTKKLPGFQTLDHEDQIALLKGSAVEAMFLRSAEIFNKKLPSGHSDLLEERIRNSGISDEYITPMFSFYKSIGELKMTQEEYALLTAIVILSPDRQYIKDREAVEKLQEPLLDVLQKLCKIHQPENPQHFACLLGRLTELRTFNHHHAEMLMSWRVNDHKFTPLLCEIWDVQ
Method: Determination of a ligand mediated Gal4 promoter driven transactivation to quantify ligand binding mediated activation of FXR was performed as follows.
The cDNA part encoding the FXR ligand binding domain was cloned into vector pCMV-BD (Stratagene) as a fusion to the yeast GAL4 DNA binding domain under the control of the CMV promoter. The amino acid boundaries of the ligand binding domain were amino acids 187-472 of Database entry NM_005123 (RefSeq). The plasmid pFR-Luc (Stratagene) was used as the reporter plasmid, containing a synthetic promoter with five tandem repeats of the yeast GAL4 binding sites, driving the expression of the Photinus pyralis (American firefly) luciferase gene as the reporter gene. In order to improve experimental accuracy the plasmid pRL-CMV (Promega) was cotransfected. pRL-CMV contains the constitutive CMV promoter, controlling the expression of the Renilla reniformis luciferase. All Gal4 reporter gene assays were done in HEK293 cells (obtained from DSMZ, Braunschweig, Germany) grown in MEM with L-Glutamine and Earle's BSS supplemented with 10% fetal bovine serum, 0.1 mM nonessential amino acids, 1 mM sodium pyruvate, and 100 units Penicillin/[…] per mL at about 37° C. in 5% CO2. Medium and supplements were obtained from Invitrogen. For the assay, 5×10^5 cells were plated per well in 96 well plates in 100 μl per well MEM without Phenol Red and L-Glutamine and with Earle's BSS supplemented with 10% charcoal/dextran treated FBS (HyClone, South Logan, Utah), 0.1 mM nonessential amino acids, 2 mM glutamine, 1 mM sodium pyruvate, and 100 units Penicillin/[…] per mL, incubated at about 37° C. in 5% CO2. The following day the cells were >90% confluence. […] Cells were incubated for additional 16 hours before firefly and renilla luciferase activities were measured sequentially in the same cell extract using a Dual-Light-Luciferase-Assay system (Dyer et al., Anal. Biochem. 2000, 282, 158-161). […]

| Compound | FGF19 levels compared to baseline (Farnesoid X receptor; 1 mg/kg) | FGF19 AUClast (Farnesoid X receptor; IV infusion, 1 mg/kg) | Ratio AUClast to FG19/GS (Farnesoid X receptor; IV, 1 mg/kg) | PO/IV (Farnesoid X receptor) | FGF19 AUClast (Farnesoid X receptor; PO, 5 mg/kg) | Ratio AUClast to FG19/GS (Farnesoid X receptor; PO, 5 mg/kg) | plasma FGF19 over the dosing interval compared to baseline (Farnesoid X receptor; 5 mg/kg) | EC50 [1] |
| --- | --- | --- | --- | --- | --- | --- | --- | --- |
| O=C(O)c1ccc(N2CC(O)(c3ccc(OCc4c(-c5c(Cl)cc(F)cc5Cl)noc4C4CC4)cc3Cl)C2)nc1 [Example 1, 6-(3-(2-chloro-4-((5-cyclopropyl-3-(2,6-dichloro-4-fluorophenyl)isoxazol-4-yl)methoxy)phenyl)-3-hydroxyazetidin-1-yl)nicotinic acid] | did not cause in increase in FGF19 | 5144 ± 2199 pg·h/mL | 1.6 | 7.8 | 28153 ± 11539 pg·h/mL | 12.5 | caused increases in plasma FGF19 | 5.5 nM |
| O=C(O)c1cnc(N2CC(O)(c3ccc(OCc4c(-c5c(Cl)cc(F)cc5Cl)noc4C4CC4)cc3Cl)C2)c(F)c1 [Comparative Example 1, 6-(3-(2-chloro-4-((5-cyclopropyl-3-(2,6-dichloro-4-fluorophenyl)isoxazol-4-yl)methoxy)phenyl)-3-hydroxyazetidin-1-yl)-5-fluoronicotinic acid] | increased FGF19 levels | 22798 ± 2387 pg·h/mL | 14 | 1.37 | 32085 ± 4252 pg·h/mL | 19.2 | caused increases in plasma FGF19 | 1.2 nM |
| O=C(O)c1ccc(N2CC(O)(c3ccc(OCc4c(-c5c(Cl)cccc5Cl)noc4C4CC4)cc3Cl)C2)nc1 [Comparative Example 2] | increased FGF19 levels | 10757 ± 2551 pg·h/mL | 3.4 | 8.2 | 18193 ± 7134 pg·h/mL | 28 | caused increases in plasma FGF19 | 2 nM |
